Experimental data from patent publication US20230398125A1, “TREATING HEPATITIS” (Albireo AB, priority 2022, published 2023).

Target: T1, M. fascicularis Ntcp (Macaca fascicularis, UniProt G7PAR4)
T1 construct: expressed in transfected cells; host or cells: GripTite 293 MSR (HEK293) cells, transient, Lipofectamine 2000
T1 sequence (G7PAR4 1-349): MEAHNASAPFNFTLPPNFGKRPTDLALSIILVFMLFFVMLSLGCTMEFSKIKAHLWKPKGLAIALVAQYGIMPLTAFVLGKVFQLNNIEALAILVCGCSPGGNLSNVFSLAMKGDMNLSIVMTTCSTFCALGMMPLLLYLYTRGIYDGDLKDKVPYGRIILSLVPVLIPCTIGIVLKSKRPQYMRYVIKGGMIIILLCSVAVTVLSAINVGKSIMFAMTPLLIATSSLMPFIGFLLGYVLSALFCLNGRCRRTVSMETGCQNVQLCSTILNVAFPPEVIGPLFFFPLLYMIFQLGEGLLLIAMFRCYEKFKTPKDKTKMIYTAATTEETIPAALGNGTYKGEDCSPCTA
Assay: [3H]TC transport in HEK293 cells transiently transfected with M. fascicularis Ntcp
Type: cell-based
Settings: read-out: IC50 bile acid transport via M. fascicularis Ntcp
Protocol: GripTite 293 MSR cells (here referred to as HEK293 cells, Invitrogen), a modified HEK293 cell line expressing human macrophage scavenger receptor for stronger adhesion, were maintained at 37° C., 5% CO2 and 95% humidity in DMEM/F-12 medium (Thermo Fisher Scientific) supplemented with 10% fetal calf serum (Sigma), 4 mM L-glutamine (PAA) and penicillin/streptomycin. HEK293 cells were transiently transfected with the M. fascicularis Ntcp cDNA construct for transport and peptide binding assays. Transfection was performed with Lipofectamine 2000 (Thermo Fisher Scientific). […]
Bile acid transport measurements were performed in the NTCP-HEK293 cells with tritium-labelled taurocholic acid (here referred to as [^3H]TC) (20 Ci/mmol, 0.09 mCi/mL, Perkin Elmer, Waltham, USA). […] Cell-associated radioactivity of [^3H]TC or [^3H]preS1 was quantified by liquid scintillation counting in a Packard Microplate Scintillation Counter TopCount NXT (Packard Instrument Company, Meriden, USA). Transport rates and [^3H]preS1 binding were determined in counts per minute (cpm). The mean of the 0% control was subtracted and the net [^3H]TC transport rates and net [^3H]preS1 binding rates, respectively, were expressed as % of control. IC50 values were calculated from quadruplicate determinations by GraphPad Prism 6 (GraphPad, San Diego, Calif., USA). […]

## CCCCC1CN(c2ccccc2)c2cc(SC)c(O/C=C(\F)C(=O)O)cc2S(=O)(=O)N1C (stereo not shown) [Compound 1, (Z)-3-((3-butyl-2-methyl-7-(methylthio)-1,1-dioxido-5-phenyl-2,3,4,5-tetrahydro-1,2,5-benzothiadiazepin-8-yl)oxy)-2-fluoroacrylic acid]
  IC50: 0.2 µM
